This experiment concerns human umbilical vein endothelial cells (HUVEC). Put plainly: HUVEC proliferation assay. The class given is cell-based. Conditions: for inhibition at 0.05 µM / inhibition at 0.15 µM / inhibition at 0.001 µM / inhibition at 0.01 µM: Homo sapiens, HUVEC; for inhibition at 0.05 µM: 50 nM; for inhibition at 0.15 µM / % inhibition @ 150 nM: Table I screening results, 150 nM; for inhibition at 0.001 µM: 1 nM; for inhibition at 0.01 µM: 10 nM. In a few lines: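 Readout was MTT dye reduction (A595) after 72 h of stimulation with VEGF at 6 ng/ml final. Compound, in 0.1% DMSO final, was added 1 h before VEGF to HUVEC starved 24 h in 1% FBS. % inhibition was scaled between VEGF-alone and unstimulated wells; IC50 was fitted from triplicate dose curves.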

Setting [1] is: Inhibition of HUVEC Proliferation, crude combinatorial urea library, read-out: Inhibition @ 50 nM.
[2] abbreviates: crude combinatorial amide library.
[3] abbreviates: Table II screening results, crude combinatorial amide library.
[4] abbreviates: Table II screening results, crude combinatorial amide library, read-out: % inhibition @ 10 nM.
The mark [5] stands for this setting: table following Table II (untitled), crude combinatorial library.
The mark [6] stands for this setting: table following Table II (untitled), crude combinatorial library, read-out: % inhibition @ 10 nM.
Where [7] appears, read: Inhibition of HUVEC Proliferation, crude combinatorial urea library, read-out: % inhibition @ 50 nM.
[8] abbreviates: crude combinatorial urea library, read-out: Inhibition of HUVEC Proliferation % inhibition @ 10 nM.
Where [9] appears, read: crude combinatorial urea library, read-out: Inhibition of HUVEC Proliferation % inhibition @ 50 nM.

Molecules are shown by their SMILES. Like-named read-outs stand apart in the source and are kept apart here.

For `CCN(CC)CCCNC(=O)Nc1nc(N)c(-c2nc(-c3cc(NC(=O)c4cccc(OC)c4)c(F)cc3F)no2)s1`, the inhibition at 0.05 µM under setting [1] is 85%.
For `COc1cc(Nc2nc(N)c(-c3nc(-c4cccc(NC(=O)c5cc6cccc(OC)c6o5)c4)cs3)s2)cc(OC)c1OC`, the inhibition at 0.15 µM under setting [2] came out at 21%.
Same read-out and setting: in the case of `COc1cc(Nc2nc(N)c(-c3nc(-c4cccc(NC(=O)Cc5ccc6c(c5)OCO6)c4)cs3)s2)cc(OC)c1OC` it was 46%.
Consider `CNC(=O)Nc1nc(N)c(-c2nc(-c3cccc(NC(=O)/C=C(\C)c4ccccc4C)c3)cs2)s1`, for which the inhibition at 0.001 µM under setting [3] is -2%. The inhibition at 0.01 µM under setting [4] came out at 20%.
Taken in the same sequence, the figures for `CNC(=O)Nc1nc(N)c(-c2nc(-c3cccc(NC(=O)C4=CCCN(C)C4)c3)cs2)s1` were 2% and 43%.
Taken in the same sequence, the figures for `CCn1nc(C)cc1C(=O)Nc1cccc(-c2csc(-c3sc(NC(=O)NC)nc3N)n2)c1` were 17% and 41%.
In the case of `COc1cccc(C(=O)Nc2ccc(C)c(-c3noc(-c4sc(Nc5cc(OC)c(OC)c(OC)c5)nc4N)n3)c2)c1` [drawing 1122], the inhibition at 0.001 µM under setting [5] turned out to be 35%. For the same compound, the inhibition at 0.01 µM under setting [6] was determined as 94%.
Taken in the same sequence, the figures for `COc1cc(Nc2nc(N)c(-c3nc(-c4cc(NC(=O)C5CC[C@H]6CC(O)CC[C@@H](C5)C6)ccc4C)no3)s2)cc(OC)c1OC` (stereo partly shown) were 7% and 20%.
On the same counts, the results for `COc1cc(Nc2nc(N)c(-c3nc(-c4cc(NC(=O)c5cc(C)n[nH]5)ccc4C)no3)s2)cc(OC)c1OC` are -1% and 99%.
Turning to `CCN(CC)CCNC(=O)Nc1nc(N)c(-c2nc(-c3cc(NC(=O)c4cccc(OC)c4)c(F)cc3F)cs2)s1`, under setting [7], the inhibition at 0.05 µM was found to be 40%.
Same read-out and setting: in the case of `COc1cccc(C(=O)Nc2cc(-c3csc(-c4sc(NC(=O)NCCC(=O)NCC(=O)O)nc4N)n3)c(F)cc2F)c1` it was 57%.
Take `COC(=O)c1ccc(C(=O)Nc2cccc(-c3csc(-c4sc(Nc5cc(OC)c(OC)c(OC)c5)nc4N)n3)c2)cc1`: the inhibition at 0.15 µM under setting [2] was 23%.
For `COc1cccc(C(=O)Nc2cc(-c3noc(-c4sc(NC(=O)NC(=O)NCC5(O)CCCCC5)nc4N)n3)c(F)cc2F)c1`, under setting [1], the inhibition at 0.05 µM was 99%.
Regarding `COc1cc(Nc2nc(N)c(-c3nc(-c4cccc(NC(=O)/C=C/c5c[nH]cn5)c4)cs3)s2)cc(OC)c1OC`, the inhibition at 0.15 µM under setting [2] worked out at 2%.
On to `COc1cccc(C(=O)Nc2cccc(-c3csc(-c4sc(NC(=O)NCC(F)(F)F)nc4N)n3)c2)c1`, for which, under setting [8], the inhibition at 0.01 µM was found to be 20%. In addition, under setting [9], the inhibition at 0.05 µM is 15%.
Turning to `COc1cccc(C(=O)Nc2cc(-c3noc(-c4sc(NC(=O)NCC(C)(C)C)nc4N)n3)c(F)cc2F)c1`, the inhibition at 0.05 µM under setting [1] came to 55%.
Still for that read-out and setting: under `COc1cccc(C(=O)Nc2cc(-c3noc(-c4sc(NC(=O)NCC(=O)O)nc4N)n3)c(F)cc2F)c1` stands 73%.
For `COc1cc(Nc2nc(N)c(-c3nc(-c4cccc(NC(=O)/C=C/c5cccc(F)c5)c4)cs3)s2)cc(OC)c1OC`, the “% inhibition @ 150 nM” value under setting [2] is recorded as 0%.
`COc1cc(Nc2nc(N)c(-c3nc(-c4cc(NC(=O)Cc5c(F)cccc5F)ccc4C)no3)s2)cc(OC)c1OC`: the inhibition at 0.001 µM under setting [5] is -23%. Under setting [6], the inhibition at 0.01 µM stood at 42%.
Taken in the same sequence, the figures for `COc1cc(Nc2nc(N)c(-c3nc(-c4cc(NC(=O)C[C@H](C)c5ccccc5)ccc4C)no3)s2)cc(OC)c1OC` were -30% and 24%.
As to `CNC(=O)Nc1nc(N)c(-c2nc(-c3cccc(NC(=O)C(=O)CC(C)C)c3)cs2)s1`, the inhibition at 0.001 µM under setting [3] is 3%. The inhibition at 0.01 µM under setting [4] is 11%.
Taken in the same sequence, the figures for `CNC(=O)Nc1nc(N)c(-c2nc(-c3cccc(NC(=O)Cc4cccc(OC)c4)c3)cs2)s1` were 25% and -31%.
Turning to `COc1cc(Nc2nc(N)c(-c3nc(-c4cccc(NC(=O)c5scc(S(=O)(=O)c6ccc(Cl)cc6)c5C)c4)cs3)s2)cc(OC)c1OC`, the inhibition at 0.15 µM under setting [2] was 10%.
For the compound `COc1cccc(C(=O)Nc2cc(-c3csc(-c4sc(NC(=O)N[C@H](CO)Cc5c[nH]cn5)nc4N)n3)c(F)cc2F)c1`, the inhibition at 0.05 µM under setting [7] amounted to 47%.
Turning to `COc1ccc(C(=O)Nc2cccc(-c3csc(-c4sc(Nc5cc(OC)c(OC)c(OC)c5)nc4N)n3)c2)cc1Cl`, the “% inhibition @ 150 nM” value under setting [2] worked out at 0%.
As to `COc1cc(Nc2nc(N)c(-c3nc(-c4cccc(NC(=O)c5cccc(Oc6ccccc6)c5)c4)cs3)s2)cc(OC)c1OC`, the inhibition at 0.15 µM under setting [2] is -3%.
For `COc1cc(Nc2nc(N)c(-c3nc(-c4cccc(NC(=O)CN5C(=O)CSC5=O)c4)cs3)s2)cc(OC)c1OC`, under setting [2], the inhibition at 0.15 µM worked out at 17%.
In the case of `COc1cccc(C(=O)Nc2cc(-c3csc(-c4sc(NC(=O)NCC#N)nc4N)n3)c(F)cc2F)c1`, under setting [7], the inhibition at 0.05 µM came to 71%.
`COc1cc(Nc2nc(N)c(-c3nc(-c4cc(NC(=O)CC5CCC6CCC5C6)ccc4C)no3)s2)cc(OC)c1OC` (stereo not shown): the inhibition at 0.001 µM under setting [5] was -7%. Moreover, under setting [6], the inhibition at 0.01 µM was found to be 47%.
Consider `COc1cccc(C(=O)Nc2cccc(-c3csc(-c4sc(NC(=O)NCCc5ccncc5)nc4N)n3)c2)c1`, for which the inhibition at 0.01 µM under setting [8] was -5%. Also, under setting [9], the inhibition at 0.05 µM was 97%.
With `C/C=C/C(=O)Nc1cccc(-c2csc(-c3sc(NC(=O)NC)nc3N)n2)c1`, the inhibition at 0.001 µM under setting [3] was -1%. For the same compound, under setting [4], the inhibition at 0.01 µM is -7%.
For `COc1cccc(C(=O)Nc2cc(-c3csc(-c4sc(NC(=O)NC5CC(C)(C)NC(C)(C)C5)nc4N)n3)c(F)cc2F)c1`, the inhibition at 0.05 µM under setting [7] worked out at 89%.
`COc1cc(Nc2nc(N)c(-c3nc(-c4cccc(NC(=O)C5(c6ccccc6)CC5)c4)cs3)s2)cc(OC)c1OC`: the inhibition at 0.15 µM under setting [2] stood at 11%.
Still for that read-out and setting: under `CCc1ccc(-c2ccc(C(=O)Nc3cccc(-c4csc(-c5sc(Nc6cc(OC)c(OC)c(OC)c6)nc5N)n4)c3)cc2)cc1` stands -7%.
In the case of `COc1cccc(C(=O)Nc2cc(-c3csc(-c4sc(NC(=O)NC(C)CN(C)C)nc4N)n3)c(F)cc2F)c1` (stereo not shown), the inhibition at 0.05 µM under setting [7] stood at 64%.
As for `CCC(C(=O)Nc1ccc(C)c(-c2noc(-c3sc(Nc4cc(OC)c(OC)c(OC)c4)nc3N)n2)c1)c1ccccc1C` (stereo not shown), the inhibition at 0.001 µM under setting [5] is -14%. Moreover, under setting [6], the inhibition at 0.01 µM was determined as 13%.
Regarding `CNC(=O)Nc1nc(N)c(-c2nc(-c3cccc(NC(=O)C4CC(=O)N(C)C4)c3)cs2)s1` (stereo not shown), the inhibition at 0.001 µM under setting [3] worked out at 21%. Moreover, the inhibition at 0.01 µM under setting [4] was -4%.
On to `COc1cc(Nc2nc(N)c(-c3nc(-c4cccc(NC(=O)/C=C/c5ccc(F)cc5)c4)cs3)s2)cc(OC)c1OC`, for which the “% inhibition @ 150 nM” value under setting [2] was 0%.
Regarding `CCCCN(CC)CCNC(=O)Nc1nc(N)c(-c2nc(-c3cc(NC(=O)c4cccc(OC)c4)c(F)cc3F)cs2)s1`, the inhibition at 0.05 µM under setting [7] is 24%.

For the origin of these results see patent US6620828B2, “Thiazole compounds and pharmaceutical compositions for inhibiting protein kinases and methods for their use” (Agouron Pharmaceuticals, Inc., priority 1999, dated 2003).
